Measured values reported in article PMC11428215, “Unveiling a New Antimicrobial Peptide with Efficacy against P. aeruginosa and K. pneumoniae from Mangrove-Derived Paenibacillus thiaminolyticus NNS5-6 and Genomic Analysis” (Antibiotics, 2024).
Where two headings read alike, the source gives them in different places. No end group written: not given here.

Columns and labels:
P. aeruginosa TISTR 357 [1] = assay: Compatibility with surfactants, residual antibacterial activity; format: physicochemical, Pseudomonas aeruginosa; conditions: AMP 16 µg/mL, agar well diffusion read-out, % of non-treated AMP, mean ± SD, n = 3
Protocol: (§1) The AMP was dissolved in sterile purified water and adjusted a final concentration to 16 µg/mL. The sensitivity of the AMP to temperatures of 37, 40, 50, 60, 80, and 100 °C, as well as autoclaving at 121 °C for 15 and 30 min was evaluated. The sensitivity of the AMP to proteolytic enzymes with different digesting characteristics was studied by incubating with a concentration of 1 mg/mL of proteinase K, trypsin, and α-chymotrypsin (Sigma-Aldrich, Warren, MI, USA). The compatibility of the AMP with surfactants was evaluated by exposing the AMP to 1% SDS or 1% Triton X-100 (AppliChem GmbH, Darmstadt, Germany). The degradation of the AMP under various pH conditions, including physiological and extended alkaline conditions, was evaluated by adjusting the pH of the solution to 1.2, 4.5, 6.8, 7.4, 8.0, 10.0, 12.0, and 14.0. After incubation, the pH of the AMP solution was neutralized to the original pH before being assessed for antibacterial activity. The antibacterial assay against P. aeruginosa TISTR 357 was conducted using the agar well diffusion assay in triplicate. The stability profiles are presented as the percentage of the residual activity compared with the non-treatment conditions (mean ± SD), and statistical significance was determined by the Student’s t-test at a p-value < 0.05.

P. aeruginosa TISTR 357 [2] = assay: Stability against pH, residual antibacterial activity; format: physicochemical, Pseudomonas aeruginosa; conditions: neutralized before assay, AMP 16 µg/mL, agar well diffusion read-out, % of non-treated AMP, mean ± SD, n = 3
Protocol: as §1

Proteinase K = Proteinase K (Parengyodontium album, UniProt P06873); conditions: Proteinase K 1 mg/mL, AMP 16 µg/mL, agar well diffusion read-out, % of non-treated AMP, mean ± SD, n = 3
Protocol: as §1

α-chymotrypsin = α-chymotrypsin (Bos taurus, UniProt P00766); conditions: α-chymotrypsin 1 mg/mL, AMP 16 µg/mL, agar well diffusion read-out, % of non-treated AMP, mean ± SD, n = 3
Protocol: as §1

Chain of Proteinase K (P06873 106-384): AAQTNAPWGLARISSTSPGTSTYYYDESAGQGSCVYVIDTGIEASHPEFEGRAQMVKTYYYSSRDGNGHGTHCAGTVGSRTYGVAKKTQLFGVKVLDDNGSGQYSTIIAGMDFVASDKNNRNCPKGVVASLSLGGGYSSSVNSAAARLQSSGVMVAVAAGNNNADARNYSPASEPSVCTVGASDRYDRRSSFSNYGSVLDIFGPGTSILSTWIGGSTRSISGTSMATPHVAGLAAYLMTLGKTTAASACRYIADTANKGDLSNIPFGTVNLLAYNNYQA

VKGDGGPGTVYTM [NNS5-6 AMP]
% Residual Activity of NNS5-6 AMP against P. aeruginosa TISTR 357 (P. aeruginosa TISTR 357 [1]; with 1% SDS, 12 h): 119.19 ± 1.53 % | % Residual Activity of NNS5-6 AMP against P. aeruginosa TISTR 357 (P. aeruginosa TISTR 357 [1]; with 1% Triton X-100, 1 h): 116.17 ± 0.60 % | % Residual Activity of NNS5-6 AMP against P. aeruginosa TISTR 357 (P. aeruginosa TISTR 357 [1]; with 1% Triton X-100, 6 h): 120.28 ± 1.53 % | % Residual Activity of NNS5-6 AMP against P. aeruginosa TISTR 357 (P. aeruginosa TISTR 357 [1]; with 1% Triton X-100, 12 h): 120.81 ± 1.53 % | % Residual Activity of NNS5-6 AMP against P. aeruginosa TISTR 357 (P. aeruginosa TISTR 357 [2]; pH 1.2, 1 h): 89.62 ± 1.85 % | % Residual Activity of NNS5-6 AMP against P. aeruginosa TISTR 357 (P. aeruginosa TISTR 357 [2]; pH 1.2, 6 h): 83.83 ± 1.72 % | % Residual Activity of NNS5-6 AMP against P. aeruginosa TISTR 357 (P. aeruginosa TISTR 357 [2]; pH 1.2, 12 h): 81.14 ± 1.71 % | % Residual Activity of NNS5-6 AMP against P. aeruginosa TISTR 357 (P. aeruginosa TISTR 357 [2]; pH 4.5, 1 h): 97.31 ± 0.33% | % Residual Activity of NNS5-6 AMP against P. aeruginosa TISTR 357 (P. aeruginosa TISTR 357 [2]; pH 4.5, 6 h): 95.69 ± 1.75% | % Residual Activity of NNS5-6 AMP against P. aeruginosa TISTR 357 (P. aeruginosa TISTR 357 [2]; pH 4.5, 12 h): 95.62 ± 1.19% | % Residual Activity of NNS5-6 AMP against P. aeruginosa TISTR 357 (P. aeruginosa TISTR 357 [2]; pH 6.8, 1 h): 97.31 ± 3.33% | % Residual Activity of NNS5-6 AMP against P. aeruginosa TISTR 357 (P. aeruginosa TISTR 357 [2]; pH 6.8, 6 h): 96.46 ± 0.57% | % Residual Activity of NNS5-6 AMP against P. aeruginosa TISTR 357 (P. aeruginosa TISTR 357 [2]; pH 6.8, 12 h): 96.00 ± 0.57% | % Residual Activity of NNS5-6 AMP against P. aeruginosa TISTR 357 (P. aeruginosa TISTR 357 [2]; pH 7.4, 1 h): 98.65 ± 0.58% | % Residual Activity of NNS5-6 AMP against P. aeruginosa TISTR 357 (P. aeruginosa TISTR 357 [2]; pH 7.4, 6 h): 98.18 ± 1.15% | % Residual Activity of NNS5-6 AMP against P. aeruginosa TISTR 357 (P. aeruginosa TISTR 357 [2]; pH 7.4, 12 h): 98.48 ± 0.66% | % Residual Activity of NNS5-6 AMP against P. aeruginosa TISTR 357 (P. aeruginosa TISTR 357 [2]; pH 8.0, 1 h): 99.23 ± 1.15% | % Residual Activity of NNS5-6 AMP against P. aeruginosa TISTR 357 (P. aeruginosa TISTR 357 [2]; pH 8.0, 6 h): 97.22 ± 0.98% | % Residual Activity of NNS5-6 AMP against P. aeruginosa TISTR 357 (P. aeruginosa TISTR 357 [2]; pH 8.0, 12 h): 98.48 ± 0.87% | % Residual Activity of NNS5-6 AMP against P. aeruginosa TISTR 357 (P. aeruginosa TISTR 357 [2]; pH 10.0, 1 h): 98.85 ± 1.20% | % Residual Activity of NNS5-6 AMP against P. aeruginosa TISTR 357 (P. aeruginosa TISTR 357 [2]; pH 10.0, 6 h): 97.42 ± 0.82% | % Residual Activity of NNS5-6 AMP against P. aeruginosa TISTR 357 (P. aeruginosa TISTR 357 [2]; pH 10.0, 12 h): 98.10 ± 1.44% | % Residual Activity of NNS5-6 AMP against P. aeruginosa TISTR 357 (P. aeruginosa TISTR 357 [2]; pH 12.0, 1 h): 94.31 ± 0.68 % | % Residual Activity of NNS5-6 AMP against P. aeruginosa TISTR 357 (P. aeruginosa TISTR 357 [2]; pH 12.0, 6 h): 93.40 ± 0.78 % | % Residual Activity of NNS5-6 AMP against P. aeruginosa TISTR 357 (P. aeruginosa TISTR 357 [2]; pH 12.0, 12 h): 90.10 ± 2.38 % | % Residual Activity of NNS5-6 AMP against P. aeruginosa TISTR 357 (P. aeruginosa TISTR 357 [2]; pH 14.0, 1 h): 90.77 ± 0.88 % | % Residual Activity of NNS5-6 AMP against P. aeruginosa TISTR 357 (P. aeruginosa TISTR 357 [2]; pH 14.0, 6 h): 84.40 ± 1.15 % | % Residual Activity of NNS5-6 AMP against P. aeruginosa TISTR 357 (P. aeruginosa TISTR 357 [2]; pH 14.0, 12 h): 79.05 ± 1.75 % | % Residual Activity of NNS5-6 AMP against P. aeruginosa TISTR 357 (Proteinase K; 1 h): 96.08 ± 3.41 % | % Residual Activity of NNS5-6 AMP against P. aeruginosa TISTR 357 (Proteinase K; 6 h): 86.58 ± 1.22 % | % Residual Activity of NNS5-6 AMP against P. aeruginosa TISTR 357 (Proteinase K; 12 h): 83.62 ± 1.34 % | % Residual Activity of NNS5-6 AMP against P. aeruginosa TISTR 357 (α-chymotrypsin; 1 h): 99.38 ± 0.95% | % Residual Activity of NNS5-6 AMP against P. aeruginosa TISTR 357 (α-chymotrypsin; 6 h): 99.42 ± 1.22% | % Residual Activity of NNS5-6 AMP against P. aeruginosa TISTR 357 (α-chymotrypsin; 12 h): 98.46 ± 0.88%
